The test has as its system responder cells (T lymphocytes). As to the kind of experiment: Mixed lymphocytes reaction ([3H]-thymidine uptake of responder cells). It counts as cell-based, human. The note with it: test substance at 2.5, 5, 10, 25 μg/mL (Nos. 1-6) or 5, 10, 25 μg/mL (Nos. 7-12); 4 days culture with mitomycin C-treated stimulator cells; FIGS. 1 and 2. The procedure: Mixed lymphocytes reaction
Lymphocytes serving as stimulator cells and responder cells were prepared from blood taken from individual healthy persons.
The responder cells were further separated from the lymphocyte cells to give T lymphocytes alone.
No treatment was applied to the responder cells. 10^6/mL of the stimulator cells were treated with 10 μg/mL of mitomycin C to stop the cell growth.
Subsequently, the responder cells were inoculated in a 96-well plate, at a rate of 10^5 cells per well, and then test substances (compound Nos. 1 to 12 listed in Table 1 below) were added to a predetermined concentration. The reaction mixture was cultured at 37° C. for one hour. Thereafter, the stimulator cells were added at a rate of 10^5 cells per well. The mixture was cultured in a CO2 incubator at 37° C. for 4 days. After the incubation, the proliferation ability of the responder cells was quantified as follows. First, [^3H]-thymidine was added to the responder cells and incorporated into the nucleus of the cells by culturing the cells for 16 hours. Then, the amount of [^3H]-thymidine uptake into the cells was determined by a scintillation counter.

Here are results for one compound from US20040142881A1, “Novel immunosuppressive agent” (TOYO SUISAN KAISHA, LTD., priority 2001, published 2004).

For `CCCCCCCCCCCCCCCCCC(=O)OCC(CO[C@@H]1O[C@H](CS(=O)(=O)[O-])[C@H](O)[C@H](O)[C@H]1O)OC(=O)CCCCCCCCCCCCCCCCC.[Na+]` (stereo partly drawn) [compound No. 12, 3-0-(6-deoxy-6-sulfo-β-D-galactopyranosyl)-1,2-di-0-stearoyl-glycerol sodium salt], the “immunosuppressive activity (amount of [3H]-thymidine uptake; the lower the uptake, the higher the activity)” value was “not confirmed”.
